Measured values published in patent EP4678639A1, “SALT OF BENZIMIDAZOLE DERIVATIVE” (JW Pharmaceutical Corporation, priority 2023, dated 2024).
Entries after “also recorded” stand apart in the source; their conditions may differ. Where a name gives a salt, the structure may show the parent alone.

Columns and labels:
[1] = Photostability test, ultraviolet light (200 W·hr/m2) exposure; settings: for After Ultraviolet Light Exposure (200 W hr/m2)(%) Degradant / After Ultraviolet Light Exposure (200 W hr/m2)(%) Total Related substances: Table 10, UV 200 W·hr/m2, PE bag; for Change (%) Degradant: Table 10, after UV exposure vs initial; for Initial (%) Degradant / Initial (%) Total Related substances: Table 10, initial
[2] = Photostability test, visible light (1.2 Mlux·hr) exposure; settings: for Change (%) Degradant: Table 11, after exposure vs initial; for Initial (%) Degradant / Initial (%) Total Related substances: Table 11, initial; for After (%) Degradant / After (%) Total Related substances: Table 11 under heading Visible Light (1.2 Mlux-hr) Exposure Test; for Change in Quality (%) Light (Visible) Degradant: Table 12 summary
[3] = Solid-state stress stability test (temperature 60 °C); settings: for Change (%) Degradant: 1 month vs initial; for Initial (%) Degradant / Initial (%) Total Related substances: Table 8, initial
Procedure: (§1) Operation and Calculation: The blank solution, standard solution, and test solution were sequentially tested under the instrument operating conditions according to the liquid chromatography method in the General Test Methods of the 12th Edition of the Korean Pharmacopoeia, and the amount of related substances was calculated using the following equation. Amount of each related; substance (%) = (AT)/(AS) × (CS)/(CT) × (Molecular weight; of the sample)/(Molecular weight; of the standard; product) × P × (1)/(RR; F) [formula] AT = Area of each related substance peak obtained from the test solution AS = Area of the tegoprazan peak obtained from the standard solution CS = Concentration of standard solution (mg/mL) CT = Concentration of test solution (mg/mL) P = Purity/Assay/Potency (%) of standard product RRF = Relative response factor (1.0)
(§2) A solid-state stability comparative test was conducted on each of the above-mentioned prepared tegoprazan acid addition salts. The stability comparative test was conducted for 1 month under the conditions shown in Table 6 below in accordance with The International Council for Harmonisation of Technical Requirements for Pharmaceuticals for Human Use (ICH) guideline, and the purity of the acid addition salt, total related substances, and the content of degradants were measured by HPLC at the initial time point and after 1 month. Total related substances and degradants were measured according to the related substance test method (HPLC).
2) Stress Stability Test (temperature 60 °C)

[4] = Solid-state stress stability test (humidity 90 % RH); settings: for absorb moisture and deliquesce / melted / Remarks: 90 % RH; for Remarks: 1 month, state of the solid; for Initial (%) Degradant / Initial (%) Total Related substances: Table 9, initial; for Change in Quality (%) 90 % RH (4 weeks) Degradant / Change in Quality (%) 90 % RH (4 weeks) Purity: Table 12 summary
Procedure: as §1, §2
3) Stress Stability (humidity 90 % RH)

[5] = Solid-state accelerated stability test (40 ± 2 °C/RH 75 ± 5 %); settings: for After 1 Month (%) Degradant / After 1 Month (%) Total Related substances / Change (%) Degradant: 40 ± 2 °C / RH 75 ± 5 %; for Change (%) Degradant: 1 month vs initial; for Initial (%) Total Related substances / Initial (%) Degradant: Table 7, initial; for Initial (%) Degradant: degradant of Formula 4; for Change in Quality (%) Accelerated (4 weeks) Degradant / Change in Quality (%) Accelerated (4 weeks) Purity: Table 12 summary
Procedure: as §1, §2

[6] = Liquid stability comparative test (20 mg/mL in purified water, 40 °C, 24 hours, HPLC); assay type: physicochemical; settings: for After 24 hours Purity (%) / After 24 hours Degradant (%): 40 °C
Procedure: The analysis conditions are as follows.
Each sample was dissolved in purified water to prepare a solution with a concentration of 20 mg/mL, stored at an external temperature of 40 °C, and analyzed by HPLC at the initial time point and after 24 hours to measure purity, and the change in the generated degradant (Formula 4) was measured. The analysis of total related substances and degradants was performed by taking a liquid from a solution prepared at a concentration of 20 mg/mL, diluting it to a concentration of 4 mg/mL with the diluent of the related substance test method (HPLC), and measuring it as a test solution, and analyzing it according to the related substance test method (HPLC).

[7] = 20 mg/mL in purified water, initial time point
[8] = degradant of Formula 4, 20 mg/mL in purified water

Cc1nc2c(O[C@H]3CCOc4cc(F)cc(F)c43)cc(C(=O)N(C)C)cc2[nH]1 [Malate Salt]
After Ultraviolet Light Exposure (200 W hr/m2)(%) Degradant [1]: 0.011%
After Ultraviolet Light Exposure (200 W hr/m2)(%) Total Related substances [1]: 0.172%
Change (%) Degradant [1]: 0.007%
Initial (%) Degradant [1]: 0.004%
Initial (%) Total Related substances [1]: 0.146%
Change in Quality (%) Light (Ultraviolet) Degradant ([1]; Table 12 summary): 0.007%
Change (%) Degradant [2]: 0.031%
Initial (%) Degradant [2]: 0.004%
Initial (%) Total Related substances [2]: 0.146%
After (%) Degradant [2]: 0.035%
After (%) Total Related substances [2]: 0.263%
Change in Quality (%) Light (Visible) Degradant [2]: 0.031%
After 1 Month (%) Degradant ([3]; 60 °C, 1 month): 1.320%
After 1 Month (%) Total Related substances ([3]; 60 °C, 1 month): 2.026%
Change (%) Degradant ([3]; 60 °C): 1.316%
Initial (%) Degradant [3]: 0.004%
Initial (%) Total Related substances [3]: 0.146%
Change in Quality (%) 60 °C (4 weeks) Degradant ([3]; Table 12 summary): 1.316%
Change in Quality (%) 60 °C (4 weeks) Purity ([3]; Table 12 summary): -1.880%
absorb moisture and deliquesce / melted [4]: absorb moisture and deliquesce; also recorded: melted
Remarks [4]: Melted
Initial (%) Degradant [4]: 0.004%
Initial (%) Total Related substances [4]: 0.146%
Change in Quality (%) 90 % RH (4 weeks) Degradant [4]: Melted
Change in Quality (%) 90 % RH (4 weeks) Purity [4]: Melted
After 1 Month (%) Degradant [5]: 0.049%
After 1 Month (%) Total Related substances [5]: 0.236%
Change (%) Degradant [5]: 0.045%
Initial (%) Total Related substances [5]: 0.146%
Initial (%) Degradant [5]: 0.004%
Change in Quality (%) Accelerated (4 weeks) Degradant [5]: 0.045%
Change in Quality (%) Accelerated (4 weeks) Purity [5]: -0.090%
purity change after 1 month ([5]; accelerated stability): ≤ 0.1%
After 24 hours Purity (%) ([6]; 20 mg/mL in purified water): Solid precipitated
Initial Purity (%) [6, 7]: 99.98%
After 24 hours Degradant (%) [6, 8]: Solid precipitated
solid precipitation / solution state ([6]; stored at 40 °C for 24 hours): solid precipitation; also recorded: solids were precipitated

Cc1nc2c(O[C@H]3CCOc4cc(F)cc(F)c43)cc(C(=O)N(C)C)cc2[nH]1 [Methanesulfonate Salt (Amorphous Form)]
After Ultraviolet Light Exposure (200 W hr/m2)(%) Degradant [1]: 0.366%
After Ultraviolet Light Exposure (200 W hr/m2)(%) Total Related substances [1]: 0.599%
Change (%) Degradant [1]: 0.082%
Initial (%) Degradant [1]: 0.284%
Initial (%) Total Related substances [1]: 0.530%
Change in Quality (%) Light (Ultraviolet) Degradant ([1]; Table 12 summary): 0.082%
Change in Quality (%) Light (Ultraviolet) Purity ([1]; Table 12 summary): 0.069%
Change (%) Degradant [2]: 0.154%
Initial (%) Degradant [2]: 0.284%
Initial (%) Total Related substances [2]: 0.530%
After (%) Degradant [2]: 0.438%
After (%) Total Related substances [2]: 0.909%
Change in Quality (%) Light (Visible) Degradant [2]: 0.154%
total related substances increased after 1 month ([3]; 60 °C): ≥ 5.0%
After 1 Month (%) Degradant ([3]; 60 °C, 1 month): 9.245%
After 1 Month (%) Total Related substances ([3]; 60 °C, 1 month): 12.245%
change in appearance, change in the color of the solid ([3]; 60 °C, 1 month): change in appearance
Change (%) Degradant ([3]; 60 °C): 8.961%
Remarks ([3]; 60 °C, 1 month, appearance): Discolorat ion
Initial (%) Degradant [3]: 0.284%
Initial (%) Total Related substances [3]: 0.530%
Change in Quality (%) 60 °C (4 weeks) Degradant ([3]; Table 12 summary): 8.961%
absorb moisture and deliquesce / melted [4]: absorb moisture and deliquesce
Remarks [4]: Melted
Initial (%) Degradant [4]: 0.284%
Initial (%) Total Related substances [4]: 0.530%
Change in Quality (%) 90 % RH (4 weeks) Degradant [4]: Melted
Change in Quality (%) 90 % RH (4 weeks) Purity [4]: Melted
After 1 Month (%) Degradant [5]: 1.124%
After 1 Month (%) Total Related substances [5]: 1.653%
Change (%) Degradant [5]: 0.840%
Initial (%) Total Related substances [5]: 0.530%
Initial (%) Degradant [5]: 0.284%
Change in Quality (%) Accelerated (4 weeks) Degradant [5]: 0.840%
Change in Quality (%) Accelerated (4 weeks) Purity [5]: -1.123%
increase in total related substances after 1 month ([5]; accelerated stability): ≥ 0.3%
After 24 hours Purity (%) ([6]; 20 mg/mL in purified water): 99.34%
Initial Purity (%) [6, 7]: 99.90%
After 24 hours Degradant (%) [6, 8]: 0.552%
Initial Degradant (%) ([6]; degradant of Formula 4, 20 mg/mL in purified water, initial time point): 0.063%
Amount of Change Degradant (%) ([6]; initial vs after 24 hours at 40 °C): 0.49%
